Earlier results on one molecule are cited in patent US10493069B2, “Methods of treating behavioral syndromes using pipradrol” (Ovid Therapeutics Inc., priority 2016, dated 2019).

The data set deals with individuals with depression. The conditions noted are these: study on 111 individuals with depression; Rickels et al., J Clin Pharmacol 14, 127-133 (1974).

Turning to `OC(c1ccccc1)(c1ccccc1)C1CCCCN1` (stereo not shown) [pipradrol], the “efficacy compared with placebo in depression” value is “not superior to placebo”.
